Source: ChEMBL document CHEMBL3826926, “Kinetic and structural insights into the binding of histone deacetylase 1 and 2 (HDAC1, 2) inhibitors” (Bioorg Med Chem, 2016)

Columns and labels:
[1] = target: T1, Histone deacetylase 3 (Homo sapiens, UniProt O15379)
Description: Inhibition of full length human recombinant HDAC3 expressed in baculovirus using carboxyfluorescein (FAM)-labeled acetylated/ trifluoroacetylated peptide as substrate assessed as residence time by fluorescence assay

[2] = target: T2, Histone deacetylase 1 (Homo sapiens, UniProt Q13547); conditions: Sf9
Description: Inhibition of C-terminal His-tagged and C-terminal FLAG-tagged full length human recombinant HDAC1 expressed in baculovirus coexpressed in fall armyworm Sf9 cells using carboxyfluorescein (FAM)-labeled acetylated/ trifluoroacetylated peptide as substrate assessed as residence time by fluorescence assay

[3] = target: T3, Histone deacetylase 2 (Homo sapiens, UniProt Q92769); conditions: Sf9
Description: Inhibition of full length human recombinant HDAC2 expressed in baculovirus coexpressed in fall armyworm Sf9 cells using carboxyfluorescein (FAM)-labeled acetylated/ trifluoroacetylated peptide as substrate assessed as residence time by fluorescence assay

[4] = Stability in mouse liver microsomes assessed as compound remaining at 1 uM after 60 mins by UPLC-MS analysis; assay type: ADME; conditions: read-out: Stability
[5] = target: T4, Histone deacetylase 8 (Homo sapiens, UniProt Q9BY41); test: (§1) Inhibition of C-terminal His-tagged full length human recombinant HDAC8 expressed in baculovirus coexpressed in fall armyworm Sf9 cells using carboxyfluorescein (FAM)-labeled acetylated/ trifluoroacetylated peptide as substrate after 60 mins by fluorescence assay
T4 sequence (Q9BY41 whole entry): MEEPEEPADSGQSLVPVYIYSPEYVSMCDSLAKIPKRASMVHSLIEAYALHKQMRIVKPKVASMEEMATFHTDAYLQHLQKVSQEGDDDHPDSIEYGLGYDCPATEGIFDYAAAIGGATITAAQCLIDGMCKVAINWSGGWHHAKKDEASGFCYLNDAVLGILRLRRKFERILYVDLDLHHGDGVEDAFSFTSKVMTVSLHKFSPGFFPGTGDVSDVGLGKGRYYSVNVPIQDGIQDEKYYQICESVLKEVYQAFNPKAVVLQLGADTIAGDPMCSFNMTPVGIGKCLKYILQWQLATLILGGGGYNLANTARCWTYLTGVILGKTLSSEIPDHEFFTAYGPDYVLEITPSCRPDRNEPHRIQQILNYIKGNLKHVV

[6] = Stability in mouse plasma assessed as compound remaining at 5 uM after 5 hrs by UPLC-MS analysis; assay type: ADME, cell-free; conditions: read-out: Stability
[7] = AUC in Sprague-Dawley rat plasma at 1 mg/kg, po; assay type: ADME, organism-based
[8] = Half life in Sprague-Dawley rat brain at 1 mg/kg, po; assay type: ADME, organism-based
[9] = system: Mus musculus; test: Binding affinity to mouse brain HDAC2 at 10 mg/kg, ip; assay type: functional
[10] = target: Histone deacetylase 4 (Homo sapiens, UniProt P56524); test: as §1, with “of N-terminal GST-tagged and” for “of”, “His-tagged” for “His-tagged full length”, “HDAC4 (627 to 1084 residues )” for “HDAC8”
[11] = Ratio of Cmax in brain to plasma in Sprague-Dawley rat at 1 mg/kg, po; assay type: ADME, organism-based
[12] = AUC in Sprague-Dawley rat brain at 1 mg/kg, po; assay type: ADME, organism-based
[13] = Oral bioavailability in Sprague-Dawley rat at 1 mg/kg; assay type: ADME, organism-based; conditions: in vivo
[14] = Ratio of AUC in brain to plasma in Sprague-Dawley rat at 1 mg/kg, po; assay type: ADME, organism-based; conditions: read-out: Ratio AUC
[15] = Cmax in Sprague-Dawley rat plasma at 1 mg/kg, po; assay type: ADME, organism-based; design: dose 1 mg/kg, route oral
[16] = target: Histone deacetylase 9 (Homo sapiens, UniProt Q9UKV0); test: Inhibition of C-terminal His-tagged human recombinant HDAC9 (604 to 1066 residues) expressed in baculovirus coexpressed in fall armyworm Sf9 cells using carboxyfluorescein (FAM)-labeled acetylated/ trifluoroacetylated peptide as substrate after 60 mins by fluorescence assay
[17] = Half life in Sprague-Dawley rat plasma at 1 mg/kg, po; assay type: ADME, organism-based
[18] = target: T5, Protein deacetylase HDAC6 (Homo sapiens, UniProt Q9UBN7); test: Inhibition of human recombinant HDAC6 expressed in baculovirus coexpressed in fall armyworm Sf9 cells using carboxyfluorescein (FAM)-labeled acetylated/ trifluoroacetylated peptide as substrate after 60 mins by fluorescence assay
T5 sequence (Q9UBN7 whole entry): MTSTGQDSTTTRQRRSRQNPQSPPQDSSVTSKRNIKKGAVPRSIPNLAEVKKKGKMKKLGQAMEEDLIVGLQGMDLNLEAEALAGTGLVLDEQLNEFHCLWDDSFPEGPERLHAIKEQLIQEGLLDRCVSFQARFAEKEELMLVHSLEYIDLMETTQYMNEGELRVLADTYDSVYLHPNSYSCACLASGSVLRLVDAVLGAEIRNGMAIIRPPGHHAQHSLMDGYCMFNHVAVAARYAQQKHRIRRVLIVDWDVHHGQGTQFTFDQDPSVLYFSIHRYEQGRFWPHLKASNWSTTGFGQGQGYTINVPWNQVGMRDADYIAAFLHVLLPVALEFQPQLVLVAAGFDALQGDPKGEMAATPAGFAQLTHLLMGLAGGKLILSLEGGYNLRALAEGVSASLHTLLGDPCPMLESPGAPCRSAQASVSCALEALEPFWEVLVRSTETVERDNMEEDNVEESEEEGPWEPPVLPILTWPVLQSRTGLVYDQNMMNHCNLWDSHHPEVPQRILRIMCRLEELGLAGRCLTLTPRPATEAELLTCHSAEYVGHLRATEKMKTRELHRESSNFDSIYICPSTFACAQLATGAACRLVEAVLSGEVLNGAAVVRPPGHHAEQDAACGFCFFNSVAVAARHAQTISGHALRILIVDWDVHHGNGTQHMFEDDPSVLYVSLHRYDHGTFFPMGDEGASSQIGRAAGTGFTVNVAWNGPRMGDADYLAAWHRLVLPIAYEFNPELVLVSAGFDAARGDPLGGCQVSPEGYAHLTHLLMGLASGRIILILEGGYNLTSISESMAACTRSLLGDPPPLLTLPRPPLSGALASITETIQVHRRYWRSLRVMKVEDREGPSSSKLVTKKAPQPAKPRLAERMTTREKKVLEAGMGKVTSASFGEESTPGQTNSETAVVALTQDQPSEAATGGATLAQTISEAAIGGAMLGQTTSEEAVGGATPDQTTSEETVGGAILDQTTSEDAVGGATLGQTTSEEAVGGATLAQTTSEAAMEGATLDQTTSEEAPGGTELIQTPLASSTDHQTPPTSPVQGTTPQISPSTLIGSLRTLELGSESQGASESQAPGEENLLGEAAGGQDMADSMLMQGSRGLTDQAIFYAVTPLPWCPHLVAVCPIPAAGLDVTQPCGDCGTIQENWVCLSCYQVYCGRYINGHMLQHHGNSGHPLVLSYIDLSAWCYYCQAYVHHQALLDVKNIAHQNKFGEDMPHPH

[19] = Cmax in Sprague-Dawley rat brain at 1 mg/kg, po; assay type: ADME, organism-based; design: dose 1 mg/kg, route oral
[20] = target: Histone deacetylase 5 (Homo sapiens, UniProt Q9UQL6); test: Inhibition of N-terminal GST-tagged full length human recombinant HDAC5 expressed in baculovirus coexpressed in fall armyworm Sf9 cells using carboxyfluorescein (FAM)-labeled acetylated/ trifluoroacetylated peptide as substrate after 60 mins by fluorescence assay
[21] = system: Mus musculus; test: Binding affinity to mouse brain HDAC1 at 10 mg/kg, ip; assay type: functional
[22] = target: T6, Histone deacetylase 7 (Homo sapiens, UniProt Q8WUI4); test: Inhibition of N-terminal GST-tagged human recombinant HDAC7 (518 to end residues) expressed in baculovirus coexpressed in fall armyworm Sf9 cells using carboxyfluorescein (FAM)-labeled acetylated/ trifluoroacetylated peptide as substrate after 60 mins by fluorescence assay
T6 sequence (Q8WUI4 whole entry): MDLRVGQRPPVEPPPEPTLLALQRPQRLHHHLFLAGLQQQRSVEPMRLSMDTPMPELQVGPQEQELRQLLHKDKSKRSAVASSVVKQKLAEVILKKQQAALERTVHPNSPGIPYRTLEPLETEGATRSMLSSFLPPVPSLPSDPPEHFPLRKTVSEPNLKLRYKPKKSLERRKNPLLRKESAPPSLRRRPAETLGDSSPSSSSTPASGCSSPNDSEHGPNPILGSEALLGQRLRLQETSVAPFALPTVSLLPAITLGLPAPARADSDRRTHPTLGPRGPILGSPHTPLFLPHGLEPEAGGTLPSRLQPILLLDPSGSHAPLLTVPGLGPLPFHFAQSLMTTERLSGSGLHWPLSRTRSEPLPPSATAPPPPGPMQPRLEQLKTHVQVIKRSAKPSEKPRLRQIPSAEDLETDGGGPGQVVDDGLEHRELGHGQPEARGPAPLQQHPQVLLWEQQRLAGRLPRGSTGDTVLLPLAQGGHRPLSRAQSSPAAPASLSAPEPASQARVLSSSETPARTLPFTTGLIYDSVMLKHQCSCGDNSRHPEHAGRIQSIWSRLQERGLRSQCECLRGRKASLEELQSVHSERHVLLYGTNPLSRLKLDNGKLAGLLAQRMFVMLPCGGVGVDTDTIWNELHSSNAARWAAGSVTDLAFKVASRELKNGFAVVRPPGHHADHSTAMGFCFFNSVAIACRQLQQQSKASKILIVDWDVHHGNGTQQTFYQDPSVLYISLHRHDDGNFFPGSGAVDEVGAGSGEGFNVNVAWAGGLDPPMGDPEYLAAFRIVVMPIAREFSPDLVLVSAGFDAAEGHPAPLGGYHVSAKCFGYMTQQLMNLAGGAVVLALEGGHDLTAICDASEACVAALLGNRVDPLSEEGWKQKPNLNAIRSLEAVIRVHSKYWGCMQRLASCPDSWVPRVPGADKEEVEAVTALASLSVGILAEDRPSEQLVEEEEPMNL

[23] = target: T1, Histone deacetylase 3; remark: listed apart in the source
Description: Inhibition full length human recombinant HDAC3 expressed in baculovirus using carboxyfluorescein (FAM)-labeled acetylated/ trifluoroacetylated peptide as substrate after 60 mins by fluorescence assay

[24] = target: T3, Histone deacetylase 2; test: biochemical; design: species or system Sf9
Description: Inhibition full length human recombinant HDAC2 expressed in baculovirus coexpressed in fall armyworm Sf9 cells using carboxyfluorescein (FAM)-labeled acetylated/ trifluoroacetylated peptide as substrate after 60 mins by fluorescence assay

[25] = target: T2, Histone deacetylase 1; test: biochemical
Description: Inhibition of C-terminal His-tagged and C-terminal FLAG-tagged full length human recombinant HDAC1 expressed in baculovirus coexpressed in fall armyworm Sf9 cells using carboxyfluorescein (FAM)-labeled acetylated/ trifluoroacetylated peptide as substrate after 60 mins by fluorescence assay

T2 sequence (Q13547 whole entry): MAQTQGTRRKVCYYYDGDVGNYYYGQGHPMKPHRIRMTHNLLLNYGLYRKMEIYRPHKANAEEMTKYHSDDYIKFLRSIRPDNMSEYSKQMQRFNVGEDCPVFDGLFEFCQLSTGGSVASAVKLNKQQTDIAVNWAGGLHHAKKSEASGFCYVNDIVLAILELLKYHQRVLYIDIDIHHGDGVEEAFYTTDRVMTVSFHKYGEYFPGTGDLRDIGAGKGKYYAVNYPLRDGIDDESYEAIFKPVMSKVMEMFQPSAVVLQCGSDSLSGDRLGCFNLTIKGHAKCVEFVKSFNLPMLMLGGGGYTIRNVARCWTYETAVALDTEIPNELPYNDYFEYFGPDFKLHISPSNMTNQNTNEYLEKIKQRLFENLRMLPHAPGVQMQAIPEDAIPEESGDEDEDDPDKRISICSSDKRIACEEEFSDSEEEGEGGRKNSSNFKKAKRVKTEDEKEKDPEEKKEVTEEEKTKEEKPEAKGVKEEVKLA
T3 sequence (Q92769 whole entry): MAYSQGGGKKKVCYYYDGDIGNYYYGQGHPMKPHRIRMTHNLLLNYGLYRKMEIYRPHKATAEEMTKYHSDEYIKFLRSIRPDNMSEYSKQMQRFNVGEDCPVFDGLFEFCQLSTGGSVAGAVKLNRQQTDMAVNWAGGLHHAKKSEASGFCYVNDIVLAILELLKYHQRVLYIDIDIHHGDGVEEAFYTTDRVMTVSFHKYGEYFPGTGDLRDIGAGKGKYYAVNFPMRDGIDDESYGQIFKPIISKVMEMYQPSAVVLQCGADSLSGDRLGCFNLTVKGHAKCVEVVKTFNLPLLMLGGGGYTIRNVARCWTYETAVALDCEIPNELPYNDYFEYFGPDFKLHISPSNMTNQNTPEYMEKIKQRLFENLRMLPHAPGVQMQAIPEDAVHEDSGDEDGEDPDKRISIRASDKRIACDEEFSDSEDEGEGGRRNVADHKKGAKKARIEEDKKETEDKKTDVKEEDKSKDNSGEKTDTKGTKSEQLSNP
T1 sequence (O15379 whole entry): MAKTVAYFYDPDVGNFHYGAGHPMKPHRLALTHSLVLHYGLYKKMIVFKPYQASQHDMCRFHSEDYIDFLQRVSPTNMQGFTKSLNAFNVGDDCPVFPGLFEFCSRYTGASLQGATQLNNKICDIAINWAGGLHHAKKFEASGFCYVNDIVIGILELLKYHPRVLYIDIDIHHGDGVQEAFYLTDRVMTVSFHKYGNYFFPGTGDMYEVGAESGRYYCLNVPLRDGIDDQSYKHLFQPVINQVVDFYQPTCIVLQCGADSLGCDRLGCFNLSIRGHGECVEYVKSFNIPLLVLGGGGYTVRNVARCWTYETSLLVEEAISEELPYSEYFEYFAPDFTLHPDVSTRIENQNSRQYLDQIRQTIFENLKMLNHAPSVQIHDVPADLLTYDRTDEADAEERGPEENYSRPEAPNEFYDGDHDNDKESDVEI
Sequence of Histone deacetylase 9 (Q9UKV0 whole entry, the tested form may be a part): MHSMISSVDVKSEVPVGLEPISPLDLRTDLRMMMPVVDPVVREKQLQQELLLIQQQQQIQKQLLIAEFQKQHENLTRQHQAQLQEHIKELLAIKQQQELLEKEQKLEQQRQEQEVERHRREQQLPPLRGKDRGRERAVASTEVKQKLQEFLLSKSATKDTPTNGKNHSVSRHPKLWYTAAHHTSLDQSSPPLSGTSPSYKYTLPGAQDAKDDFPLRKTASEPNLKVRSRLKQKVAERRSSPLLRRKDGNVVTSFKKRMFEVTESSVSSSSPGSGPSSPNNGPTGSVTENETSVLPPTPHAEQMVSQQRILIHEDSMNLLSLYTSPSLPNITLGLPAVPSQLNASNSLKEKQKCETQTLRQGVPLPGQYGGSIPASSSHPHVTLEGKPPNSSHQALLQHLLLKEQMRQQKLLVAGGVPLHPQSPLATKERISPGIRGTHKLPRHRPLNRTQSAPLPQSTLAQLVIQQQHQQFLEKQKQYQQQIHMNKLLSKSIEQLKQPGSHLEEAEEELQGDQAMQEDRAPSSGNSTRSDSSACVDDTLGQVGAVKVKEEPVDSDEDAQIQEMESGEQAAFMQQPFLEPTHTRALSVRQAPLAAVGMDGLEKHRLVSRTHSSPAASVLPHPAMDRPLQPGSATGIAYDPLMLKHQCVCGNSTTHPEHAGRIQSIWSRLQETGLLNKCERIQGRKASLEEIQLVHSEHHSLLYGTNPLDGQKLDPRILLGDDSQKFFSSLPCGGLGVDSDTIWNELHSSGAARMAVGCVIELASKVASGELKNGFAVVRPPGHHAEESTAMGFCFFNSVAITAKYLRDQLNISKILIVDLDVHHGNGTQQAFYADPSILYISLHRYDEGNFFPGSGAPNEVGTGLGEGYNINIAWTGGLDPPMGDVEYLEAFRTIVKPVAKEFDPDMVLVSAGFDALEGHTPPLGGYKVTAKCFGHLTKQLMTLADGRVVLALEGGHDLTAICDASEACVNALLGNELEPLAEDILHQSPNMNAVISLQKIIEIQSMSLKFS
Sequence of Histone deacetylase 5 (Q9UQL6 whole entry): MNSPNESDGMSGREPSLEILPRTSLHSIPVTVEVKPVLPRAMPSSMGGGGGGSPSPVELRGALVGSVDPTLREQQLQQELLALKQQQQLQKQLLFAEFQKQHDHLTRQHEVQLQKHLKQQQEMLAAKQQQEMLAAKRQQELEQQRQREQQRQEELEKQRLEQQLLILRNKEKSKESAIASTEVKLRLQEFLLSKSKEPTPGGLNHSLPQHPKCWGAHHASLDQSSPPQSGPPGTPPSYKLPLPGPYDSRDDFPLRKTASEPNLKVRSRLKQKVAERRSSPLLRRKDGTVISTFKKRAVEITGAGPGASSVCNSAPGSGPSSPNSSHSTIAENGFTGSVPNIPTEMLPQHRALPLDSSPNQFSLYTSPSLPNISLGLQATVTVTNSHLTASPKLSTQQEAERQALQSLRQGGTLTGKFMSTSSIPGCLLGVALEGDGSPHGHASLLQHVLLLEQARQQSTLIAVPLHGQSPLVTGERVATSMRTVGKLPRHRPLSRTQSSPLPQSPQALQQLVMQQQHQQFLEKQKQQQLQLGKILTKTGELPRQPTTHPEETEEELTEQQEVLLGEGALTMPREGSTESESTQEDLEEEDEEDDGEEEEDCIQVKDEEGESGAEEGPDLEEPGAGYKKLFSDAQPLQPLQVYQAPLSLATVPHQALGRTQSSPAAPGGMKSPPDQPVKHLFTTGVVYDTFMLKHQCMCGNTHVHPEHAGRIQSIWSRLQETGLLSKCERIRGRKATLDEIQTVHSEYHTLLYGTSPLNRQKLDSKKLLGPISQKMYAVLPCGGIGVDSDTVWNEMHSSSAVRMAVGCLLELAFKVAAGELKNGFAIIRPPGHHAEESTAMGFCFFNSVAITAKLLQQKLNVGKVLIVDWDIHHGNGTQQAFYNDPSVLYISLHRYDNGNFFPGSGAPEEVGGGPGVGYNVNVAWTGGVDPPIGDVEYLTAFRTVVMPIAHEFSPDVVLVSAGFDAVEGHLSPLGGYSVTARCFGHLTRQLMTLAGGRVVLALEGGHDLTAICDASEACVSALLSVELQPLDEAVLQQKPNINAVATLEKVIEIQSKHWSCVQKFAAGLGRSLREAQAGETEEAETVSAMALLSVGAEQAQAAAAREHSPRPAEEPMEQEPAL
Sequence of Histone deacetylase 4 (P56524 whole entry, the tested form may be a part): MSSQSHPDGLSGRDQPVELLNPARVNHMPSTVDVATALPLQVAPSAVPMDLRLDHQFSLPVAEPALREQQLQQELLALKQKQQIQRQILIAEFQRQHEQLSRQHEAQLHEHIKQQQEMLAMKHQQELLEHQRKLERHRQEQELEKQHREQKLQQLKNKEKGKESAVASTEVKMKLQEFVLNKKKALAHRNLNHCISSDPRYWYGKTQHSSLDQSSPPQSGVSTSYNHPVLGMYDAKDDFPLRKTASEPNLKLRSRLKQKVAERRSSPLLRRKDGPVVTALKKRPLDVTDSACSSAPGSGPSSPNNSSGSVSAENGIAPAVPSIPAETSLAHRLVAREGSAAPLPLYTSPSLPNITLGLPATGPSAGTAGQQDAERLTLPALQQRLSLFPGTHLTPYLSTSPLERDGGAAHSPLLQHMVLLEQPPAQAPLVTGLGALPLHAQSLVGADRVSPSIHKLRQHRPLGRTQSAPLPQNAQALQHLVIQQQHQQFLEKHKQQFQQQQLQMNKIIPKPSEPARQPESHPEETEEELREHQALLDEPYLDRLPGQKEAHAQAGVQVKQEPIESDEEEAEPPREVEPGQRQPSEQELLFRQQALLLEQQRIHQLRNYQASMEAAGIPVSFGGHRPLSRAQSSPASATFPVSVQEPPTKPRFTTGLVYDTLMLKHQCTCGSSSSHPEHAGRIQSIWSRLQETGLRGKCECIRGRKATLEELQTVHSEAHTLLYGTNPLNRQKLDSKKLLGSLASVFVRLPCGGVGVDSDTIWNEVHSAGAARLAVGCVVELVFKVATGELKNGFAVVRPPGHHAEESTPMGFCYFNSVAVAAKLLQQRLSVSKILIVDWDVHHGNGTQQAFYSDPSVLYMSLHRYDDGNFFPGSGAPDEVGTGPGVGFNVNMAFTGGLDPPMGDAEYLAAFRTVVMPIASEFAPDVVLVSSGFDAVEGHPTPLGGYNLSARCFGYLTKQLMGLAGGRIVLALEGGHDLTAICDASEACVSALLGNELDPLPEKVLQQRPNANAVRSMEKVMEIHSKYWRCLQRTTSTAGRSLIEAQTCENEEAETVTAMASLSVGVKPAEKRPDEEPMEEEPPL

T1/2 [1] [min]	T1/2 [2] [min]	remaining at 5 h, 5 µM [6] [%]	IC50 [23] [µM]	IC50 [24] [nM]	IC50 [25] [nM]	SMILES	further results
20.8	6.45	–	–	–	–	Nc1ccc(-c2cccnc2)cc1NC(=O)C1CCOCC1	–
> 33.3	2.35	–	–	–	–	Nc1ccc(-c2ccncc2)cc1NC(=O)C1CCOCC1	–
–	–	11.1	25.9	119	45	Nc1ccc(-c2ccc(F)cc2)cc1NC(=O)C1Cc2ccccc2CO1 (centres undefined)	–
–	–	0	5.95	1450	1430	Nc1ccc(-c2ccc(F)cc2)cc1NC(=O)[C@@H]1CCCCO1	–
3.85	0.119	–	–	–	–	Nc1ccc(-c2ccccc2)cc1NC(=O)C1CCOCC1	–

The next lines start with the molecule.

SMILES	T1/2 [1] [min]	T1/2 [2] [min]	remaining at 5 h, 5 µM [6] [%]	IC50 [23] [µM]	IC50 [24] [nM]	IC50 [25] [nM]	further results
Nc1ccc(-c2cccc(F)c2)cc1NC(=O)C1CCOCC1	> 33.3	9.67	–	–	–	–	T1/2 [3]: 12.3 min
Nc1ccc(-c2ccc(F)cc2)cc1NC(=O)[C@@H]1C[C@H]2CC[C@@H](C1)O2	132	3	114	–	–	–	remaining at 1 h, 1 µM [4]: 62%; IC50 [5]: > 33.3 µM; AUC [7]: 10.8 µM·h; half-life [8]: 146 min; Activity [9]: 10%; IC50 [10]: > 33.3 µM; Kp [11]: 0.22; AUC [12]: 1.8 µM·h; bioavailability [13]: 33.4%; Kp [14]: 0.17; Cmax [15]: 3.97 µM; IC50 [16]: > 33.3 µM; half-life [17]: 282 min; IC50 [18]: > 33.3 µM; T1/2 [3]: 37 min; Cmax [19]: 890 nM; IC50 [20]: > 33.3 µM; Activity [21]: 42%; IC50 [22]: > 33.3 µM
Nc1ccc(-c2ccc(C(F)(F)F)cc2)cc1NC(=O)C1CCOCC1	> 33.3	26.7	–	–	–	–	T1/2 [3]: > 33.3 min
Nc1ccc(-c2ccc(F)cc2)cc1NC(=O)C1C2COCC21 (centres undefined)	217	13	94.1	–	–	–	remaining at 1 h, 1 µM [4]: 60%; T1/2 [3]: 58 min
Nc1ccc(-c2ccc(F)cc2)cc1NC(=O)C1CCOCC1	–	–	93	–	–	–	remaining at 1 h, 1 µM [4]: 54%; Activity [9]: 10%; Activity [21]: 68%
Nc1ccc(-c2ccc(F)cc2)cc1NC(=O)C1CCCOC1 (centres undefined)	–	–	–	19.8	4730	1220	–
Nc1ccc(-c2ccc(F)cc2)cc1NC(=O)C1COc2ccccc2C1 (centres undefined)	–	–	100	–	–	–	remaining at 1 h, 1 µM [4]: 25%
Nc1ccc(-c2ccc(F)cc2)cc1NC(=O)[C@H]1CCCCO1	–	–	0	5.73	1290	467	–
Nc1ccc(-c2ccc(F)cc2)cc1NC(=O)C1CCc2ccccc2O1 (centres undefined)	–	–	3.7	6.26	6560	5590	–
